What was measured:
[1] = test system: Human immunodeficiency virus 1; test: Antiviral activity against HIV1 3B infected in human MT4 cells assessed as inhibition of virus-induced cytopathicity measured 5 days post viral infection by MTT assay; assay type: functional, organism-based; conditions: Human immunodeficiency virus 1, 3B, MT4, 120 h
[2] = test system: Human immunodeficiency virus 2; test: Antiviral activity against HIV2 ROD infected in human MT4 cells assessed as inhibition of virus-induced cytopathicity measured 5 days post viral infection by MTT assay; assay type: functional, organism-based; conditions: Human immunodeficiency virus 2, ISOLATE ROD, MT4, 120 h
[3] = Cytotoxicity against human MT4 cells by MTT assay; assay type: cell-based
[4] = Selectivity index, ratio CC50 for human MT4 cells to EC50 for HIV 1 3B
[5] = test system: Human immunodeficiency virus 1; test: Antiviral activity against HIV1 RES056 harboring RT K103N,Y181C double mutant infected in human MT4 cells assessed as inhibition of virus-induced cytopathicity measured 5 days post viral infection by MTT assay; assay type: functional, organism-based; conditions: Human immunodeficiency virus 1, RES056, MT4, 120 h

In the case of `Nc1ccn([C@@H]2CS[C@H](CO)O2)c(=O)n1` [LAMIVUDINE], the EC50 [1] is reported as 2.44 µM, the EC50 [2] is reported as 7.2 µM and the CC50 [3] is reported as greater than 87.2 µM. It also gave a selectivity ratio ([4]; mt4) greater than 36.

With `Cc1ccnc2c1NC(=O)c1cccnc1N2C1CC1` [NEVIRAPINE] the EC50 [5] was greater than 15 µM and the selectivity ratio ([4]; MT4 cells) was greater than 163.

Compound `N#Cc1ccc(Nc2nccc(C(Br)c3ccccc3)n2)cc1` (stereo not given) has an EC50 [1] of 0.2 µM, an EC50 [2] greater than 69 µM and an EC50 [5] greater than 69 µM. It also gave a CC50 [3] of 69 µM and a selectivity ratio ([4]; MT4 cells) of 348.

With `Cc1cc(C(Cl)c2ccc(F)cc2)nc(Nc2ccc(C#N)cc2)n1` (stereo not given) the EC50 [1] was 5.84 µM, the EC50 [2] was greater than 31.1 µM and the EC50 [5] was greater than 31.1 µM. The CC50 [3] was 31.1 µM and the selectivity ratio ([4]; MT4 cells) was 5.

`Cc1cnc(Nc2ccc(C#N)cc2)nc1C(Cl)c1ccc(Br)cc1` (stereo not given) showed an EC50 [1] of 0.109 µM, an EC50 [2] greater than 10.3 µM and an EC50 [5] greater than 10.3 µM. It also gave a CC50 [3] of 10.3 µM and a selectivity ratio ([4]; MT4 cells) of 95.

For `Cc1cc(C(Cl)c2ccc(Br)cc2)nc(Nc2ccc(C#N)cc2)n1` (stereo not given), the EC50 [1] was 0.435 µM, the EC50 [2] was greater than 31.9 µM and the EC50 [5] was greater than 31.9 µM. The CC50 [3] was 31.9 µM and the selectivity ratio ([4]; MT4 cells) was 75.

Work on `N#Cc1ccc(Nc2nccc(C(Cl)c3ccc(Cl)cc3)n2)cc1` (stereo not given) yielded an EC50 [1] of 0.068 µM, an EC50 [2] greater than 36.1 µM and an EC50 [5] greater than 36.1 µM. The CC50 [3] was 36.1 µM and the selectivity ratio ([4]; MT4 cells) was 545.

Work on `O=C1Nc2ccc(Cl)cc2[C@@](C#CC2CC2)(C(F)(F)F)O1` [EFAVIRENZ] yielded an EC50 [5] of 0.27 µM, a CC50 [3] greater than 6.3 µM and a selectivity ratio ([4]; mt4) greater than 1140.

In the case of `Cc1cc(C(Cl)c2ccc(C(C)(C)C)cc2)nc(Nc2ccc(C#N)cc2)n1` (stereo not given), the EC50 [1] is reported as 0.174 µM, the EC50 [2] is reported as greater than 30.3 µM and the EC50 [5] is reported as greater than 30.3 µM. For the same compound, the CC50 [3] was 30.3 µM and the selectivity ratio ([4]; MT4 cells) was 173.

Work on `CC(C)(C)c1ccc(C(Cl)c2ccnc(Nc3ccc(C#N)cc3)n2)cc1` (stereo not given) yielded an EC50 [1] of 0.17 µM, an EC50 [2] greater than 32.9 µM and an EC50 [5] greater than 32.9 µM. The CC50 [3] was 32.9 µM and the selectivity ratio ([4]; MT4 cells) was 193.

`N#Cc1ccc(Nc2nccc(C(Cl)c3cccc(F)c3)n2)cc1` (stereo not given) gave an EC50 [1] of 1.36 µM, an EC50 [2] greater than 36.8 µM and an EC50 [5] greater than 36.8 µM. The CC50 [3] was 36.8 µM and the selectivity ratio ([4]; MT4 cells) was 27.

`CC(C)Nc1cccnc1N1CCN(C(=O)c2cc3cc(NS(C)(=O)=O)ccc3[nH]2)CC1` [DELAVIRDINE] gave an EC50 [1] of 0.085 µM, an EC50 [5] greater than 43.8 µM and a CC50 [3] greater than 43.8 µM. It also gave a selectivity ratio ([4]; MT4 cells) greater than 511.

With `Cc1ccc(C(Br)c2ccnc(Nc3ccc(C#N)cc3)n2)cc1` (stereo not given) the EC50 [1] was 0.047 µM, the EC50 [2] was greater than 31.5 µM and the EC50 [5] was greater than 31.5 µM. The CC50 [3] was 31.5 µM and the selectivity ratio ([4]; MT4 cells) was 672.

Work on `Cc1cnc(Nc2ccc(C#N)cc2)nc1C(Cl)c1ccc(C(C)(C)C)cc1` (stereo not given) yielded an EC50 [1] of 1.79 µM, an EC50 [2] greater than 28.7 µM and an EC50 [5] greater than 28.7 µM. It also gave a CC50 [3] of 28.7 µM and a selectivity ratio ([4]; MT4 cells) of 16.

Work on `COc1ccc(C(Cl)c2ccnc(Nc3ccc(C#N)cc3)n2)cc1` (stereo not given) yielded an EC50 [1] of 0.219 µM, an EC50 [2] greater than 33.6 µM and an EC50 [5] greater than 33.6 µM. For the same compound, the CC50 [3] was no less than 33.6 µM.

Work on `Cc1cnc(Nc2ccc(C#N)cc2)nc1C(Cl)c1ccc(F)cc1` (stereo not given) yielded an EC50 [1] of 7.88 µM, an EC50 [2] greater than 30.8 µM and an EC50 [5] greater than 30.8 µM. The CC50 [3] was 30.8 µM and the selectivity ratio ([4]; MT4 cells) was 4.

In the case of `Cc1ccc(C(Cl)c2ccnc(Nc3ccc(C#N)cc3)n2)cc1` (stereo not given), the EC50 [1] is reported as 0.069 µM, the EC50 [2] is reported as greater than 49.7 µM and the EC50 [5] is reported as greater than 49.7 µM. For the same compound, the CC50 [3] was 49.7 µM and the selectivity ratio ([4]; MT4 cells) was 713.

Work on `N#Cc1ccc(Nc2nccc(C(Cl)c3ccc(Br)cc3)n2)cc1` (stereo not given) yielded an EC50 [1] of 0.038 µM, an EC50 [2] greater than 32.5 µM and an EC50 [5] greater than 32.5 µM. The CC50 [3] was 32.5 µM and the selectivity ratio ([4]; MT4 cells) was 875.

Work on `Cc1cc(C#N)cc(C)c1Oc1nc(Nc2ccc(C#N)cc2)nc(N)c1Br` [ETRAVIRINE] yielded an EC50 [2] greater than 14.2 µM, an EC50 [5] of 0.0147 µM and a CC50 [3] of 14.2 µM. It also gave a selectivity ratio ([4]; mt4) of 7380.

With `N#Cc1ccc(Nc2nccc(C(Cl)c3ccccc3)n2)cc1` (stereo not given) the EC50 [1] was 0.016 µM, the EC50 [2] was greater than 37.8 µM and the EC50 [5] was greater than 37.8 µM. It also gave a CC50 [3] of 37.8 µM and a selectivity ratio ([4]; MT4 cells) of 2340.

In the case of `N#Cc1ccc(Nc2nccc(C(Cl)c3cccc(Br)c3)n2)cc1` (stereo not given), the EC50 [1] is reported as 0.009 µM, the EC50 [2] is reported as greater than 30.4 µM and the EC50 [5] is reported as 8.2 µM. The CC50 [3] was 30.4 µM and the selectivity ratio ([4]; MT4 cells) was 3110.

Compound `N#Cc1ccc(Nc2nccc(C(Cl)c3cccc(Cl)c3)n2)cc1` (stereo not given) has an EC50 [1] of 0.005 µM, an EC50 [2] greater than 24.3 µM and an EC50 [5] greater than 24.3 µM. For the same compound, the CC50 [3] was 24.3 µM and the selectivity ratio ([4]; MT4 cells) was 5160.

With `N#Cc1ccc(Nc2nccc(C(Cl)c3ccc(F)cc3)n2)cc1` (stereo not given) the EC50 [1] was 1.83 µM, the EC50 [2] was greater than 35.4 µM and the EC50 [5] was greater than 35.4 µM. For the same compound, the CC50 [3] was 35.4 µM and the selectivity ratio ([4]; MT4 cells) was 19.

With `N#Cc1ccc(Nc2nccc(C(Cl)c3cccc4ccccc34)n2)cc1` (stereo not given) the EC50 [1] was 0.202 µM, the EC50 [2] was greater than 11.3 µM and the EC50 [5] was greater than 11.3 µM. It also gave a CC50 [3] of 11.3 µM and a selectivity ratio ([4]; MT4 cells) of 56.

Compound `Cc1cn([C@H]2C[C@H](N=[N+]=[N-])[C@@H](CO)O2)c(=O)[nH]c1=O` [ZIDOVUDINE] has an EC50 [2] of 0.005 µM, an EC50 [5] of 0.007 µM and a CC50 [3] greater than 93.5 µM. The selectivity ratio ([4]; mt4) was greater than 17000.
